Laboratory results as given in US20170015654A1, “PYRIDAZINE COMPOUND” (TAKEDA PHARMACEUTICAL COMPANY LIMITED, priority 2014, published 2017).

Key:
SCD [1] = molecular target: T1, SCD (Homo sapiens, UniProt O00767); experiment: Measurement of SCD inhibitory activity using human large intestine cancer cell line (HCT116 cell); type: cell-based; conditions: HCT-116; 1 μM compound; HCT116 cells; [14C]stearic acid, 3 hours; read-out: Rate of inhibition of SCD activity at compound concentration of 1 μM
T1 construct: HCT116 (ATCC (American Type Culture Collection)) was inoculated at 1×10^5 cells/well to a 96-well plate; host or cells: HCT116
T1 sequence (O00767 1-359): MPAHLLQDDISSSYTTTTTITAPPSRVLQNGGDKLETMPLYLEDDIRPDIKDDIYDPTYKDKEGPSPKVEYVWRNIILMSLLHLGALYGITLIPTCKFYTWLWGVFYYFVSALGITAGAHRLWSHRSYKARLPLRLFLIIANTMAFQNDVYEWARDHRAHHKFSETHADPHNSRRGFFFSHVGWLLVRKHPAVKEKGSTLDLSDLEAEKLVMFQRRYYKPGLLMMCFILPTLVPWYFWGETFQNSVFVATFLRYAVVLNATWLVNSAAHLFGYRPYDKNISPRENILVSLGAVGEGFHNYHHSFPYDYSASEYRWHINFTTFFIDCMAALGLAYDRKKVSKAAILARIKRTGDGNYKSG
Experimental: Measurement of SCD Inhibitory Activity Using Human Large Intestine Cancer Cell Line (HCT116 Cell)
HCT116 (ATCC (American Type Culture Collection)) was inoculated at 1×10^5 cells/well to a 96-well plate and cultured overnight in DMEM (Dulbecco's modified Eagle medium) containing 10% FBS (fetal bovine serum) (AusGeneX PTY LTD.). After the culture, each well was washed twice with phosphate-buffered saline (PBS) (200 μL). Then, a reaction medium (DMEM, penicillin/streptomycin, 0.3% BSA) containing 1.5 μM of the test compound was added thereto at 40 μL/well, and the plate was left standing for 15 minutes in a CO2 incubator (37° C.). A reaction medium containing 0.1 μCi of [^14C]stearic acid was added at 20 μL/well to the plate thus left standing, and the plate was left standing for 3 hours in a CO2 incubator (37° C.). Each well of the plate thus left standing was washed twice with 200 μL of PBS. Then, 2.5 N NaOH was added thereto at 20 μL/well, and the plate was provided with a plate seal and then incubated overnight in a heat sterilizer set to 55° C. A formic acid:methanol:chloroform (1:16:4) solution was added at 200 μL/well to the plate thus left standing. Further, the mixture in each well was separated into two layer by the addition of 200 μL of pure water. After the separation, a 10 μL aliquot was separated from the lower layer, spotted on a reverse-phase TLC plate (RP-18, 1154230001, Merck KGaA), and developed with an acetonitrile:pure water:acetic acid (95:4.5:0.5) solution. After drying, the TLC plate was transferred to Imaging Plate (Fuji Photo Film) for 5 hours or longer. Detection was carried out using FLA7000 (GE Healthcare Japan Corp.), and the obtained spot images were digitalized using ImageQuant TL (GE Healthcare Japan Corp.) to determine the rate of inhibition of SCD activity (%).

SCD [2] = molecular target: T2, SCD (Rattus norvegicus, UniProt P07308); experiment: Measurement of SCD inhibitory activity using microsome (TLC detection system); type: biochemical; conditions: 1 μM compound; rat liver microsome fraction; [14C]stearoyl-CoA; read-out: Rate of inhibition of SCD activity at compound concentration of 1 μM
T2 construct: the obtained precipitate other than the glycogen layer was used as the microsome fraction; from tissue; host or cells: rat liver microsome fraction
T2 sequence (P07308 1-358): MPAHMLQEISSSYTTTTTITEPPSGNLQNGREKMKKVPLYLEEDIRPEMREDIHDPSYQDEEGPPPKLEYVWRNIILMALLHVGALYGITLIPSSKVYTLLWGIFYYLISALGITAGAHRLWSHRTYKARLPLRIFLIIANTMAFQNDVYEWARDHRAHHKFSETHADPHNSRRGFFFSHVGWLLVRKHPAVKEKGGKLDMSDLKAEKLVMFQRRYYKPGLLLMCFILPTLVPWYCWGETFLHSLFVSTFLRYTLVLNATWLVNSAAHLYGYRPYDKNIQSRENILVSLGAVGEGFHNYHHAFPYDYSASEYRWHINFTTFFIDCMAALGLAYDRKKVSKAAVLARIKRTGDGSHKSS
Experimental: Testing Method: Measurement of SCD Inhibitory Activity Using Microsome (TLC Detection System)
A microsome fraction was produced and preserved as follows: first, the liver was excised from a rat, thoroughly washed with PBS and then chopped. A microsome preparation buffer (0.25 M sucrose, 10 mM Tris-HCl, pH 7.4, protease inhibitor cocktail (F. Hoffmann-La Roche, Ltd.)) was added to the chopped liver, and the cells were disrupted using a POLYTORON homogenizer on ice. The homogenate thus obtained by the disruption was centrifuged at 10,000×g at 4° C. for 30 minutes to collect a supernatant. The centrifugation operation described above was repeated again for the obtained supernatant to obtain a supernatant again. The obtained supernatant was centrifuged at 40,000×g at 4° C. for 60 minutes, and the obtained precipitate other than the glycogen layer was used as the microsome fraction. The protein concentration of the microsome fraction was measured using BCA Protein Assay Kit (Pierce/Thermo Fisher Scientific, Inc.), and the microsome fraction was cryopreserved at −80° C. until use.
The SCD inhibitory activity of each test compound was measured as follows: first, the test compound was diluted into 10 mM with DMSO to obtain a primary dilution. The obtained primary dilution was diluted 3/1000 by the addition of 3× buffer (300 mM potassium phosphate, pH 7.4, 450 mM KCl, 30 mM NaF, 9 mM MgCl2, 4.5 mM glutathione reduced form (Wako Pure Chemical Industries, Ltd.), 0.3% BSA fatty acid free (Sigma-Aldrich Corp.) to obtain a secondary dilution. The secondary dilution was dispensed at 10 μL/well to a polypropylene 96-deep well block. Then, the microsome fraction diluted using a microsome buffer (10 mM Tris-HCl, pH 7.5, 250 mM sucrose) was added thereto at 10 μL/well (containing 10 μg of the protein). An enzyme reaction solution containing [^14C]stearoyl-CoA (American Radiolabeled Chemicals, Inc.) diluted into […] using 9 mM NADH (Sigma-Aldrich Corp.) was further added thereto at 10 μL/well. 30 minutes thereafter, 2.5 N NaOH was added thereto at 10 μL/well. After the completion of the addition, the deep well block was provided with a plate seal and then left standing overnight in a heat sterilizer set to 55° C. Subsequently to the standing, fatty acid extraction from the sample was carried out in accordance with the Bligh & Dyer method. Specifically, 200 μL of a formic acid:methanol:chloroform (1:6:3) solution was added to the sample thus left standing, and then, the mixture was stirred while the single-layer state was maintained. Further, 120 μL of pure water was added to the mixture to separate it into two layers. After the separation, a 10 μL aliquot was separated from the lower layer, spotted on a reverse-phase TLC plate (RP-18, 1154230001, Merck KGaA), and developed with an acetonitrile:pure water:acetic acid (95:4.5:0.5) solution. After drying, the TLC plate was transferred to Imaging Plate (Fuji Photo Film) for 5 hours or longer. Detection was carried out using FLA7000 (GE Healthcare Japan Corp.), and the obtained spot images were digitalized using ImageQuant TL (GE Healthcare Japan Corp.) to determine the rate of inhibition of SCD activity (%).

inhibition at 1 µM (SCD [1])	inhibition at 1 µM (SCD [2])	SMILES
97%	92%	N#CC1(c2ccc(S(F)(F)(F)(F)F)cc2)CCN(c2ccc(-c3nnc(CO)o3)nn2)CC1 [Example 58, 1-(6-(5-(Hydroxymethyl)-1,3,4-oxadiazol-2-yl)pyridazin-3-yl)-4-(4-(pentafluorosulfanyl)phenyl)piperidine-4-carbonitrile]
99%	95%	OCc1noc(-c2ccc(N3CCC(c4ccc(C(F)(F)F)cc4)(C(F)(F)F)CC3)nn2)n1 [Example 82, (5-(6-(4-(Trifluoromethyl)-4-(4-(trifluoromethyl)phenyl)piperidin-1-yl)pyridazin-3-yl)-1,2,4-oxadiazol-3-yl)methanol]
99%	93%	OCc1nnc(-c2ccc(N3CCC(c4ccc(C(F)(F)F)cc4)(C(F)(F)F)CC3)nn2)o1 [Example 84, (5-(6-(4-(Trifluoromethyl)-4-(4-(trifluoromethyl)phenyl)piperidin-1-yl)pyridazin-3-yl)-1,3,4-oxadiazol-2-yl)methanol]
99%	94%	COC1(c2ccc(S(F)(F)(F)(F)F)cc2)CCN(c2ccc(-c3nnc(CO)o3)nn2)CC1 [Example 93, (5-(6-(4-Methoxy-4-(4-(pentafluorosulfanyl)phenyl)piperidin-1-yl)pyridazin-3-yl)-1,3,4-oxadiazol-2-yl)methanol]
100%	95%	N#CC1(c2ccc(S(F)(F)(F)(F)F)cc2)CCN(c2ccc(-c3nc(CO)ns3)nn2)CC1 [Example 108, 1-(6-(3-(Hydroxymethyl)-1,2,4-thiadiazol-5-yl)pyridazin-3-yl)-4-(4-(pentafluorosulfanyl)phenyl)piperidine-4-carbonitrile]
96%	93%	N#CC1(c2ccc(S(F)(F)(F)(F)F)cc2)CCN(c2ccc(-c3nnc(CO)s3)nn2)CC1 [Example 109, 1-(6-(5-(Hydroxymethyl)-1,3,4-thiadiazol-2-yl)pyridazin-3-yl)-4-(4-(pentafluorosulfanyl)phenyl)piperidine-4-carbonitrile]
98%	94%	COC1(c2ccc(S(F)(F)(F)(F)F)cc2)CCN(c2ccc(-c3nc(CO)ns3)nn2)CC1 [Example 110, (5-(6-(4-Methoxy-4-(4-(pentafluorosulfanyl)phenyl)piperidin-1-yl)pyridazin-3-yl)-1,2,4-thiadiazol-3-yl)methanol]
101%	96%	COC1(c2ccc(S(F)(F)(F)(F)F)cc2)CCN(c2ccc(-c3nnc(CO)s3)nn2)CC1 [Example 111, (5-(6-(4-Methoxy-4-(4-(pentafluorosulfanyl)phenyl)piperidin-1-yl)pyridazin-3-yl)-1,3,4-thiadiazol-2-yl)methanol]
97%	96%	OCc1nsc(-c2ccc(N3CCC(c4ccc(C(F)(F)F)cc4)(C(F)(F)F)CC3)nn2)n1 [Example 112, (5-(6-(4-(Trifluoromethyl)-4-(4-(trifluoromethyl)phenyl)piperidin-1-yl)pyridazin-3-yl)-1,2,4-thiadiazol-3-yl)methanol]
99%	95%	OCc1nnc(-c2ccc(N3CCC(c4ccc(C(F)(F)F)cc4)(C(F)(F)F)CC3)nn2)s1 [Example 113, (5-(6-(4-(Trifluoromethyl)-4-(4-(trifluoromethyl)phenyl)piperidin-1-yl)pyridazin-3-yl)-1,3,4-thiadiazol-2-yl)methanol]
